Results published in PubChem BioAssay (NCI).
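Method: 48-hour compound exposure of cells in 96-well plates, five concentrations, linear interpolation of endpoints. GI50 is the concentration that inhibits growth by half. The concentration for full growth arrest is given as TGI.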

What was measured:
Assay in all cases: DTP human tumour cell line panel, 48 h
T-47D breast = tested on: T-47D breast
SF-539 CNS = tested on: SF-539 CNS
SW-620 colon = tested on: SW-620 colon
MOLT-4 leukemia = tested on: MOLT-4 leukemia
NCI-H460 lung = tested on: NCI-H460 lung
MDA-MB-435 = tested on: MDA-MB-435
MALME-3M melanoma = tested on: MALME-3M melanoma
A549 NSCLC = tested on: A549 NSCLC
HOP-92 NSCLC = tested on: HOP-92 NSCLC
SNB-75 CNS = tested on: SNB-75 CNS
SF-295 CNS = tested on: SF-295 CNS
TK-10 renal = tested on: TK-10 renal
DU-145 prostate = tested on: DU-145 prostate
SK-MEL-2 melanoma = tested on: SK-MEL-2 melanoma
KM12 colon = tested on: KM12 colon
CAKI-1 renal = tested on: CAKI-1 renal
OVCAR-3 ovarian = tested on: OVCAR-3 ovarian
RPMI-8226 leukemia = tested on: RPMI-8226 leukemia
EKVX NSCLC = tested on: EKVX NSCLC
HT29 colon = tested on: HT29 colon
HCC-2998 colon = tested on: HCC-2998 colon
BT-549 breast = tested on: BT-549 breast
UO-31 renal = tested on: UO-31 renal
HCT-15 colon = tested on: HCT-15 colon
NCI/ADR-RES ovarian = tested on: NCI/ADR-RES ovarian
SK-MEL-5 melanoma = tested on: SK-MEL-5 melanoma
A498 renal = tested on: A498 renal
SK-OV-3 ovarian = tested on: SK-OV-3 ovarian
UACC-257 melanoma = tested on: UACC-257 melanoma
IGROV1 ovarian = tested on: IGROV1 ovarian
U251 CNS = tested on: U251 CNS
NCI-H522 lung = tested on: NCI-H522 lung
HOP-62 NSCLC = tested on: HOP-62 NSCLC
OVCAR-4 ovarian = tested on: OVCAR-4 ovarian
OVCAR-5 ovarian = tested on: OVCAR-5 ovarian
PC-3 prostate = tested on: PC-3 prostate
NCI-H23 lung = tested on: NCI-H23 lung
HCT-116 colon = tested on: HCT-116 colon
NCI-H226 lung = tested on: NCI-H226 lung
MDA-MB-231 breast = tested on: MDA-MB-231 breast
HS 578T breast = tested on: HS 578T breast
MCF7 breast = tested on: MCF7 breast
OVCAR-8 ovarian = tested on: OVCAR-8 ovarian
SK-MEL-28 melanoma = tested on: SK-MEL-28 melanoma
RXF 393 renal = tested on: RXF 393 renal
MDA-MB-468 breast = tested on: MDA-MB-468 breast
SN12C renal = tested on: SN12C renal
CCRF-CEM leukemia = tested on: CCRF-CEM leukemia
SF-268 CNS = tested on: SF-268 CNS
M14 melanoma = tested on: M14 melanoma
ACHN renal = tested on: ACHN renal
COLO 205 colon = tested on: COLO 205 colon
786-0 renal = tested on: 786-0 renal
HL-60(TB) leukemia = tested on: HL-60(TB) leukemia
SNB-19 CNS = tested on: SNB-19 CNS
LOX IMVI melanoma = tested on: LOX IMVI melanoma
UACC-62 melanoma = tested on: UACC-62 melanoma
K-562 leukemia = tested on: K-562 leukemia

Which GI50 (T-47D breast) does the source give for `CCCSc1nc(Nc2ccc(S(N)(=O)=O)cc2)c(C#N)c(-c2cc(OC)c(OC)c(OC)c2)n1` here?
The GI50 was 2.76 µM.

And the TGI (T-47D breast)?
The TGI was 51 µM.

What about the GI50 (SF-539 CNS) of the same compound?
Its GI50 is 21.4 µM.

What about the TGI (SF-539 CNS) of the same compound?
Its TGI is over 100 µM.

What about the GI50 (SW-620 colon) of the same compound?
Its GI50 is 8.34 µM.

And the TGI (SW-620 colon)?
The TGI was over 100 µM.

And the GI50 (MOLT-4 leukemia)?
The GI50 was 2.53 µM.

What about the TGI (MOLT-4 leukemia) of the same compound?
Its TGI is 8.95 µM.

What about the GI50 (NCI-H460 lung) of the same compound?
The GI50 was 5.46 µM.

What about the TGI (NCI-H460 lung) of the same compound?
Its TGI is over 100 µM.

And the GI50 (MDA-MB-435)?
The GI50 was 4.9 µM.

What about the TGI (MDA-MB-435) of the same compound?
Its TGI is over 100 µM.

And the GI50 (MALME-3M melanoma)?
Its GI50 is 5.78 µM.

And the TGI (MALME-3M melanoma)?
The TGI was 75.4 µM.

And the GI50 (A549 NSCLC)?
The GI50 was 4.31 µM.

What about the TGI (A549 NSCLC) of the same compound?
Its TGI is over 100 µM.

And the GI50 (HOP-92 NSCLC)?
The GI50 was 3.98 µM.

And the TGI (HOP-92 NSCLC)?
Its TGI is 63.6 µM.

What about the GI50 (SNB-75 CNS) of the same compound?
The GI50 was 2.09 µM.

And the TGI (SNB-75 CNS)?
Its TGI is over 100 µM.

And the GI50 (SF-295 CNS)?
Its GI50 is 3.75 µM.

And the TGI (SF-295 CNS)?
Its TGI is 28.3 µM.

And the GI50 (TK-10 renal)?
Its GI50 is 16.1 µM.

And the TGI (TK-10 renal)?
Its TGI is over 100 µM.

What about the GI50 (DU-145 prostate) of the same compound?
Its GI50 is 7.93 µM.

And the TGI (DU-145 prostate)?
Its TGI is over 100 µM.

And the GI50 (SK-MEL-2 melanoma)?
Its GI50 is 11.8 µM.

And the TGI (SK-MEL-2 melanoma)?
Its TGI is over 100 µM.

What about the GI50 (KM12 colon) of the same compound?
The GI50 was 4.77 µM.

What about the TGI (KM12 colon) of the same compound?
The TGI was over 100 µM.

What about the GI50 (CAKI-1 renal) of the same compound?
Its GI50 is 5.76 µM.

What about the TGI (CAKI-1 renal) of the same compound?
Its TGI is over 100 µM.

And the GI50 (OVCAR-3 ovarian)?
Its GI50 is 6.07 µM.

What about the TGI (OVCAR-3 ovarian) of the same compound?
Its TGI is over 100 µM.

And the GI50 (RPMI-8226 leukemia)?
The GI50 was 3.56 µM.

What about the TGI (RPMI-8226 leukemia) of the same compound?
The TGI was over 100 µM.

What about the GI50 (EKVX NSCLC) of the same compound?
The GI50 was 5.27 µM.

What about the TGI (EKVX NSCLC) of the same compound?
Its TGI is over 100 µM.

And the GI50 (HT29 colon)?
Its GI50 is 6.89 µM.

And the TGI (HT29 colon)?
Its TGI is over 100 µM.

What about the GI50 (HCC-2998 colon) of the same compound?
Its GI50 is 7.53 µM.

And the TGI (HCC-2998 colon)?
Its TGI is over 100 µM.

And the GI50 (BT-549 breast)?
Its GI50 is 3.24 µM.

And the TGI (BT-549 breast)?
Its TGI is 32.5 µM.

What about the GI50 (UO-31 renal) of the same compound?
The GI50 was 2.59 µM.

What about the TGI (UO-31 renal) of the same compound?
The TGI was over 100 µM.

What about the GI50 (HCT-15 colon) of the same compound?
Its GI50 is 3.4 µM.

And the TGI (HCT-15 colon)?
Its TGI is over 100 µM.

What about the GI50 (NCI/ADR-RES ovarian) of the same compound?
The GI50 was 4.6 µM.

What about the TGI (NCI/ADR-RES ovarian) of the same compound?
Its TGI is over 100 µM.

What about the GI50 (SK-MEL-5 melanoma) of the same compound?
The GI50 was 2.75 µM.

What about the TGI (SK-MEL-5 melanoma) of the same compound?
The TGI was 12.1 µM.

What about the GI50 (A498 renal) of the same compound?
Its GI50 is over 100 µM.

What about the TGI (A498 renal) of the same compound?
Its TGI is over 100 µM.

What about the GI50 (SK-OV-3 ovarian) of the same compound?
Its GI50 is 55.1 µM.

What about the TGI (SK-OV-3 ovarian) of the same compound?
The TGI was over 100 µM.

And the GI50 (UACC-257 melanoma)?
Its GI50 is 19.2 µM.

And the TGI (UACC-257 melanoma)?
The TGI was over 100 µM.

What about the GI50 (IGROV1 ovarian) of the same compound?
Its GI50 is 25.9 µM.

What about the TGI (IGROV1 ovarian) of the same compound?
Its TGI is over 100 µM.

And the GI50 (U251 CNS)?
Its GI50 is 5.37 µM.

And the TGI (U251 CNS)?
The TGI was over 100 µM.

What about the GI50 (NCI-H522 lung) of the same compound?
The GI50 was 10.7 µM.

And the TGI (NCI-H522 lung)?
The TGI was over 100 µM.

What about the GI50 (HOP-62 NSCLC) of the same compound?
Its GI50 is 11.1 µM.

And the TGI (HOP-62 NSCLC)?
The TGI was over 100 µM.

What about the GI50 (OVCAR-4 ovarian) of the same compound?
Its GI50 is 6.39 µM.

And the TGI (OVCAR-4 ovarian)?
Its TGI is over 100 µM.

And the GI50 (OVCAR-5 ovarian)?
Its GI50 is 32.7 µM.

And the TGI (OVCAR-5 ovarian)?
The TGI was over 100 µM.

And the GI50 (PC-3 prostate)?
Its GI50 is 2.8 µM.

And the TGI (PC-3 prostate)?
Its TGI is over 100 µM.

What about the GI50 (NCI-H23 lung) of the same compound?
Its GI50 is 15.7 µM.

What about the TGI (NCI-H23 lung) of the same compound?
Its TGI is over 100 µM.

And the GI50 (HCT-116 colon)?
Its GI50 is 4.38 µM.

What about the TGI (HCT-116 colon) of the same compound?
Its TGI is over 100 µM.

What about the GI50 (NCI-H226 lung) of the same compound?
Its GI50 is 6.07 µM.

And the TGI (NCI-H226 lung)?
The TGI was over 100 µM.

What about the GI50 (MDA-MB-231 breast) of the same compound?
Its GI50 is 7.23 µM.

What about the TGI (MDA-MB-231 breast) of the same compound?
The TGI was over 100 µM.

And the GI50 (HS 578T breast)?
The GI50 was 7.33 µM.

And the TGI (HS 578T breast)?
The TGI was over 100 µM.

And the GI50 (MCF7 breast)?
Its GI50 is 4.23 µM.

And the TGI (MCF7 breast)?
The TGI was over 100 µM.

What about the GI50 (OVCAR-8 ovarian) of the same compound?
The GI50 was 5 µM.

And the TGI (OVCAR-8 ovarian)?
The TGI was over 100 µM.

What about the GI50 (SK-MEL-28 melanoma) of the same compound?
The GI50 was 7.29 µM.

What about the TGI (SK-MEL-28 melanoma) of the same compound?
The TGI was over 100 µM.

What about the GI50 (RXF 393 renal) of the same compound?
The GI50 was 2.36 µM.

What about the TGI (RXF 393 renal) of the same compound?
Its TGI is 9.67 µM.

And the GI50 (MDA-MB-468 breast)?
Its GI50 is 6.22 µM.

And the TGI (MDA-MB-468 breast)?
Its TGI is 65.4 µM.

And the GI50 (SN12C renal)?
Its GI50 is 5.77 µM.

And the TGI (SN12C renal)?
The TGI was over 100 µM.

And the GI50 (CCRF-CEM leukemia)?
The GI50 was 3.44 µM.

And the TGI (CCRF-CEM leukemia)?
Its TGI is over 100 µM.

What about the GI50 (SF-268 CNS) of the same compound?
Its GI50 is 9.84 µM.

And the TGI (SF-268 CNS)?
Its TGI is over 100 µM.

And the GI50 (M14 melanoma)?
Its GI50 is 6.74 µM.

What about the TGI (M14 melanoma) of the same compound?
Its TGI is over 100 µM.

What about the GI50 (ACHN renal) of the same compound?
The GI50 was 4.88 µM.

What about the TGI (ACHN renal) of the same compound?
The TGI was over 100 µM.

And the GI50 (COLO 205 colon)?
The GI50 was 8.77 µM.

What about the TGI (COLO 205 colon) of the same compound?
The TGI was over 100 µM.

What about the GI50 (786-0 renal) of the same compound?
Its GI50 is 10.4 µM.

What about the TGI (786-0 renal) of the same compound?
The TGI was over 100 µM.

What about the GI50 (HL-60(TB) leukemia) of the same compound?
Its GI50 is 2.93 µM.

And the TGI (HL-60(TB) leukemia)?
Its TGI is 33.2 µM.

What about the GI50 (SNB-19 CNS) of the same compound?
Its GI50 is 11.7 µM.

And the TGI (SNB-19 CNS)?
Its TGI is over 100 µM.

And the GI50 (LOX IMVI melanoma)?
The GI50 was 3.68 µM.

What about the TGI (LOX IMVI melanoma) of the same compound?
The TGI was over 100 µM.

And the GI50 (UACC-62 melanoma)?
The GI50 was 6.25 µM.

And the TGI (UACC-62 melanoma)?
Its TGI is over 100 µM.

What about the GI50 (K-562 leukemia) of the same compound?
Its GI50 is 3.52 µM.

And the TGI (K-562 leukemia)?
The TGI was over 100 µM.
